According to article PMC10380841, “Synthesis, Characterization and Cytotoxic Evaluation of New Pyrrolo[1,2-b]pyridazines Obtained via Mesoionic Oxazolo-Pyridazinones” (International Journal of Molecular Sciences, 2023):
Read-outs that look alike come from different tables or passages of the source.

Columns and labels:
Daphnia magna Straus = experiment: Daphnia magna toxicity assay; type: in vivo; details: 48 h
Experimental: (§1) Young organisms of Daphnia magna were selected according to their size from a parthenogenetic culture maintained in an artificial medium for 24 h before the bioassay. The determination was conducted in tissue culture plates with 12 wells (Greiner Bio-One, Monroe, NC, USA), with 10 organisms in each well, and a final volume of 3 mL per sample [65, 66]. As a negative control, DMSO was used at a concentration of 1%. All compounds were tested at six different concentration levels, ranging from 12.5 to 500 μg/mL. All assessments were performed in duplicate.

[1] = Daphnia magna toxicity assay; type: in vivo; details: Daphnia magna, in vivo; 48 h
Experimental: as §1

[2] = tested on: MCF-7 breast adenocarcinoma cells; experiment: MTS cytotoxicity assay, MCF-7; type: cell-based, human; details: Homo sapiens, MCF7; for viability at 200 µM: MCF-7, 200 μM; for viability at 200 µM / viability at 400 µM / viability at 40 µM: read-out: cell viability; for viability at 400 µM: MCF-7, 400 μM; for viability at 40 µM: MCF-7, 40 μM
Experimental: (§2) Therefore, the precursor acids 2a–c and corresponding pyrrolo[1,2-b]pyridazines 5a–c,f were tested for their potential cytotoxic activity. During the assays, increasing concentrations of the compounds, ranging from […], were added for 24 h or 48 h to cancer LoVo, SK-OV-3, MCF-7, and the reference HUVEC cells, previously cultured for 24 h in 96-well flat bottom plates. […] Then, MTS reagent was added, and cells were incubated for 4 h at 37 °C in a 5% CO2 humidified atmosphere. The absorbance values were spectrophotometrically read to a Dynex ELISA reader at λ = […].
(§3) For the evaluation of the in vitro potential anti-proliferative effects of treatments with the new compounds under study against solid tumor-derived cells, several compound-mediated cytotoxicity assays were performed on three adherent tumor standardized cell lines, and normal human endothelial cells, used as control: the MCF-7 human breast adenocarcinoma and SK-OV-3 human ovary adenocarcinoma cell lines were provided from European Collection of Authenticated Cell Cultures (ECACC), while LoVo, human colorectal adenocarcinoma cell line, and HUVEC human umbilical vein endothelial cells were purchased from American Type Culture Collection (ATCC).
(§4) Adherent cells were cultivated in DMEM/F12 medium added with 2 mM L-glutamine and 10% fetal bovine serum, 100 units/mL penicillin, 100 µg/mL streptomycin (Sigma Aldrich, St. Louis, MO, USA) and incubated at 37 °C in 5% CO2 humidified atmosphere. The stock solutions for cell treatments were prepared by dissolving the synthesized compounds in a minimum amount of DMSO. Working dilutions were prepared from the stock solutions in culture medium before each treatment assay. After 24 h, when cell cultures achieved around 70% confluence, treatments were applied for various periods of time with different concentrations of synthesized compounds or oncolytic drugs, used as positive controls.
(§5) Therefore, cell cultures treated with the new compounds or oncolytic drugs for 24 h or 48 h were further subjected to a colorimetric cell viability method, the MTS assay. The absorbance of probes was read, data were calculated, and percentages of cell viability were assessed.
The evaluation of the compound-induced cytotoxicity was made using the CellTiter 96 Aqueous One Solution Cell Proliferation Assay (Promega, Madison, WI, USA), a reagent that contains both MTS (3-(4,5-dimethylthiazol-2-yl)-5-(3-carboxymethoxyphenyl)-2-(4-sulfophenyl)-2H-tetrazolium, inner salt) and PES ([…], a cationic dye with high chemical stability that binds to MTS and forms a stable solution). The assay is based on the ability of the metabolically active cells to reduce the yellow tetrazolium salt MTS to a compound that is soluble in culture medium, the colored formazan, followed by the spectrophotometric evaluation of its concentration.
(§6) Briefly, 1.5 × 10^4 cancer or normal cells were cultured in 100 µL/well for 24 h. After the culture supernatants were discarded, cells were treated for additional 24 h or 48 h with increasing concentrations of new compounds or oncolytic drugs. Following the specific treatments, in each well a volume of 20 µL of coloring mixture reagent of MTS and PES was added, and then the plates were incubated with mild agitation every 20 min for 4 h at 37 °C. The color developed during incubation was spectrophotometrically quantified at λ = 492 nm using a Dynex ELISA reader (DYNEX Technologies—MRS, Chantilly, VA, USA).
(§7) Data were expressed as percentages of cell viability of the treated cells, and were calculated and compared to the untreated cells (considered 100% viable), using the formula:Cell viability (%) = (T − B)/(U − B) × 100 where T = absorbance of treated cells, U = absorbance of untreated cells, and B = absorbance of culture medium (blank), for λ = 492 nm.
The cell viability data were expressed as the mean values ± standard deviations (SD) of three different experiments (n = 3). […]

[3] = tested on: LoVo colon adenocarcinoma cells; experiment: MTS cytotoxicity assay, LoVo; type: cell-based; details: Homo sapiens, read-out: cell viability
[4] = tested on: SK-OV-3 ovary adenocarcinoma cells; experiment: MTS cytotoxicity assay, SK-OV-3; type: cell-based; details: Homo sapiens, read-out: cell viability; for viability at 400 µM: SK-OV-3, 400 μM; for viability at 40 µM: SK-OV-3, 40 μM
Triticum aestivum L. = experiment: Triticum test, phytotoxicity (main root length); type: in vivo; details: Triticum aestivum, 72 h; Triticum root length, 10–1000 µM, measured over three days
Experimental: Phytobiological testing (Triticum test) was performed by the Constantinescu method which consists in determining the maximum active dilution of a compound. Depending on the duration of action, it can influence root elongation and the […] film. […] Embryonic wheat roots were obtained by germinating homogeneous wheat caryopses in Linhart pots. Then the caryopses with a main root length of 1 cm were placed in the test solutions. For the determination of the action of each compound, five dilutions in the concentration range of 10–1000 µM were obtained and 11 caryopses were placed in them. Petri dishes containing 15 mL of diluted solution were kept under constant conditions of temperature (25 °C), and humidity (60%), in the absence of light. […] The results were expressed in comparison with a 1% DMSO control.
Statistical analyses were performed using the computing and programming environment R, R, v. 4.2.1 [68], under Rstudio, v. 2022.07.2+576 “Spotted Wakerobin” for Windows (RStudio, PBC, Boston, 2022), both for the Triticum and Artemia tests. It used a parametric mixed-effects model (R package “lme4”) and a robust mixed-effects model (R package “robustlmm”), in which root length measurements (Triticum) from all three days were used as the dependent variable, whereas compound, concentration and time were treated as fixed effects, with time (day of measurement) also treated as a random effect. Assessing statistical significance for mixed-effects statistical models is controversial and complex, but as a pragmatic way of working, we have estimated p-values using the Kenward–Rogers approximation (R package “sjPlot”). A variety of R base functions and R packages were used to diagnose the regression models (“car” [72], “MASS” [73], and “gvlma” [74]). Mixed boxplot–dotplot plots were generated using the “ggplot2” package.
The “drc” R package was used to estimate IC50 values for the Triticum bioassay by nonlinear modeling. For Triticum, the relationship between root length and concentration was modeled using Weibull functions with 2, 3, or 4 parameters, depending on the data distribution, the models being selected from a range of several models with different functions and parameters, based on the Akaike’s information criterion (AIC).

[5] = tested on: LoVo colon adenocarcinoma cells; experiment: MTS cytotoxicity assay, LoVo; type: cell-based, human; details: Homo sapiens
Experimental: as §2, §3, §4, §5
(§8) The evaluation of the compound-induced cytotoxicity was made using the CellTiter 96 Aqueous One Solution Cell Proliferation Assay (Promega, Madison, WI, USA), a reagent that contains both MTS (3-(4,5-dimethylthiazol-2-yl)-5-(3-carboxymethoxyphenyl)-2-(4-sulfophenyl)-2H-tetrazolium, inner salt) and PES ([…], a cationic dye with high chemical stability that binds to MTS and forms a stable solution).
as §6, §7
(§9) The cell viability data were expressed as the mean values ± standard deviations (SD) of three different experiments (n = 3). […] Moreover, a parallel experiment was performed in the absence of cells, with all the concentrations of the compounds being tested for their potential interference with MTS reagents; then, their absorbance values were extracted during calculations.

[6] = tested on: SK-OV-3 ovary adenocarcinoma cells; experiment: MTS cytotoxicity assay, SK-OV-3; type: cell-based, human; details: Homo sapiens
Experimental: as §2, §3, §4, §5, §8, §6, §7, §9

[7] = tested on: HUVEC human umbilical vein endothelial cells; experiment: MTS cytotoxicity assay, HUVEC normal cells; type: cell-based; details: for cytotoxic effect on HUVEC: 24 h
Experimental: as §2, §3, §4, §5, §8, §6, §7, §9

[8] = MTS cytotoxicity assay, HUVEC normal cells; type: cell-based, human; details: human, HUVEC human umbilical vein endothelial cells (normal cells), read-out: cell viability
Experimental: as §2, §3, §4, §5, §8, §6, §7, §9

Artemia nauplii = tested on: Artemia nauplii; parameters: method as in PMID 16445096; details: at 24 and 48 h; cited from earlier work
[9] = MCF-7, 48 h, read-out: IC50 MCF-7 48 h
[10] = SK-OV-3, 24 h, read-out: IC50 Sk-OV-3 24 h
[11] = SK-OV-3, 48 h, read-out: IC50 Sk-OV-3 48 h
[12] = MCF-7, 24 h, read-out: IC50 MCF-7 24 h

CCOC(=O)C(CC)n1nc(-c2ccccc2)ccc1=O (stereo not shown) [Compound 1a, Ethyl 2-(6-oxo-3-phenylpyridazin-1-yl)butanoate]
melting point: 56 to 58 °C

CCOC(=O)C(CC)n1nc(-c2ccc(F)cc2)ccc1=O (stereo not shown) [Compound 1b, Ethyl 2-[6-oxo-3-(4-fluorophenyl)pyridazin-1-yl]butanoate]
melting point: 59 to 61 °C

CCOC(=O)C(CC)n1nc(-c2ccc(Cl)cc2)ccc1=O (stereo not shown) [Compound 1c, Ethyl 2-[6-oxo-3-(4-chlorophenyl)pyridazin-1-yl]butanoate]
melting point: 49 to 51 °C

CCC(C(=O)O)n1nc(-c2ccccc2)ccc1=O (stereo not shown) [Compound 2a, 2-(6-Oxo-3-phenylpyridazin-1-yl)butanoic acid]
toxicity on Daphnia magna (Daphnia magna Straus): moderate toxicity
LC50 at 48 h [1]: 521 µM
viability at 200 µM ([2]; 48 h): 97%
viability at 400 µM ([2]; 48 h): 94%
IC50 [2, 9]: ≥ 400 µM
viability at 200 µM ([3]; 48 h): 82.9%
viability at 400 µM ([3]; 24 h): 69.1%
viability at 400 µM ([3]; 48 h): 60.8%
viability at 400 µM ([4]; 24 h): 89.3%
viability at 400 µM ([4]; 48 h): 85.1%
IC50 (Triticum aestivum L.): 213 µM
IC50 ([5]; 24 h, read-out: IC50 LoVo 24 h): ≥ 400 µM
IC50 ([5]; 48 h, read-out: IC50 LoVo 48 h): ≥ 400 µM
IC50 [6, 10]: ≥ 400 µM
IC50 [6, 11]: ≥ 400 µM

O=c1[nH]cc(F)c(=O)[nH]1 [Compound 5-FU, 5-fluorouracil, reference compound]
cell viability ([7]; 200 μM, 48 h): no significant effect
cytotoxic effect on HUVEC [7]: no remarkable cytotoxic effects
viability at 200 µM ([2]; 24 h): 45.5%
viability at 200 µM ([2]; 48 h (drug control)): 18.2%
IC50 [2, 12]: 80.6 ± 4.39 µM
IC50 [2, 9]: 60.4 ± 5.04 µM
viability at 200 µM ([3]; 24 h): 42.3%
viability at 200 µM ([3]; 48 h): 28.7%
IC50 ([5]; 24 h, read-out: IC50 LoVo 24 h): 76.1 ± 3.09 µM
IC50 ([5]; 48 h, read-out: IC50 LoVo 48 h): 66.2 ± 2.66 µM

CCOC(=O)c1cc(CC)n2nc(-c3ccccc3)ccc12 [Compound 5d, Ethyl 7-ethyl-2-phenylpyrrolo[1,2-b]pyridazine-5-carboxylate]
melting point: 99 to 101 °C

CCOC(=O)c1cc(CC)n2nc(-c3ccc(Cl)cc3)ccc12 [Compound 5f, Ethyl 2-(4-chlorophenyl)-7-ethylpyrrolo[1,2-b]pyridazine-5-carboxylate]
viability at 24 h, 400 µM ([8]; 400 μM, 24 h): 90%
viability at 48 h, 400 µM ([8]; 400 μM, 48 h): 91.6%
toxicity on Daphnia magna (Daphnia magna Straus): moderate toxicity
LC50 at 48 h [1]: 428 µM
viability at 200 µM ([2]; 48 h): 97%
viability at 400 µM ([2]; 48 h): 94%
IC50 [2, 9]: ≥ 400 µM
viability at 400 µM ([3]; 24 h): 78.2%
viability at 400 µM ([3]; 48 h): 41.8%
viability at 400 µM ([4]; 48 h): 83%
IC50 ([5]; 24 h, read-out: IC50 LoVo 24 h): ≥ 400 µM
IC50 ([5]; 48 h, read-out: IC50 LoVo 48 h): 353 ± 4.1 µM
IC50 [6, 10]: ≥ 400 µM
IC50 [6, 11]: ≥ 400 µM

COc1cccc2c1C(=O)c1c(O)c3c(c(O)c1C2=O)C[C@@](O)(C(=O)CO)C[C@@H]3O[C@H]1C[C@H](N)[C@H](O)[C@H](C)O1 [DOX, doxorubicin, reference compound]
cytotoxic effect on HUVEC [7]: no remarkable cytotoxic effects
viability at 48 h, 40 µM ([8]; 40 μM, 48 h): 81.7%
viability at 40 µM ([2]; 24 h): 41.8%
viability at 40 µM ([2]; 48 h): 36.7%
IC50 [2, 12]: 14.8 ± 4 µM
IC50 [2, 9]: 11.6 ± 0.53 µM
viability at 40 µM ([4]; 24 h): 68.6%
viability at 40 µM ([4]; 48 h): 35.2%
IC50 [6, 10]: 55.4 ± 2.98 µM
IC50 [6, 11]: 12.1 ± 0.32 µM

O=c1n(Cl)c(=O)n(Cl)c(=O)n1Cl [TCIC, trichloroisocyanuric acid]
LC50 (Artemia nauplii): < 1 µM

OC[P+](CO)(CO)CO [THPC, tetrakis(hydroxymethyl) phosphonium chloride]
LC50 (Artemia nauplii): < 1 µM
